Assay results reported in the NIST ThermoML archive (doi:10.1016/j.jct.2015.09.030).

Experiment: xn = mol fraction of the nth substance listed
Conditions: 100 kPa, Liquid; for mass density: Vibrating tube method; for viscosity: Falling or rolling sphere viscometry

CCCCCCCCCCCCCC[P+](CCCCCC)(CCCCCC)CCCCCC.[Cl-] [trihexyl(tetradecyl)phosphonium chloride] + CO
Conditions	mass density, 298.15 K [kg/m3]	mass density, 303.15 K [kg/m3]	mass density, 308.15 K [kg/m3]	mass density, 313.15 K [kg/m3]	viscosity, 303.15 K [mPa·s]	viscosity, 308.15 K [mPa·s]	viscosity, 313.15 K [mPa·s]
x1 = 0.0156	–	804.8	800.5	796.3	0.911	0.842	0.79
x1 = 0.0351	–	822.4	818.5	814.5	1.542	1.407	1.289
x1 = 0.056	–	835.4	831.6	827.9	2.704	2.287	1.901
x1 = 0.0811	–	847.4	843.9	–	5.089	4.496	4.071
x1 = 0.1271	–	860.4	857.1	–	12.28	10.64	9.437
x1 = 0.2092	–	871.8	868.5	865.3	33.24	27.72	23.32
x1 = 0.3681	–	880.9	877.8	874.5	116.2	90.86	81.39
x1 = 0.4851	–	884	881	878.6	255.5	197.3	151.5
x1 = 0.6453	–	886.7	883.7	880.8	486.4	363.3	271.4
x1 = 0.7844	–	888.2	885.3	882.6	744.5	543.1	396.8
x1 = 0.8997	–	889.1	886.2	883.2	978.6	700	505.7
x1 = 1	892.8	889.8	886.9	883.9	1174	824.1	593.7
